This is an account of results in patent publication US10570177B2, “P3 peptidylic inhibitors for treating CAG-repeat RNA toxicity in polyglutamine diseases” (The Chinese University of Hong Kong, priority 2017, dated 2020).

Values joined by “and” are separate entries in the source; they are usually repeats but may differ in a detail not shown here. Identical values can stand only once. “Also recorded” adds a separate entry of the source. Starred links: 1 amine or outer side, 2 acyl side, 3 side chain; linkers in the order of their positions; H or OH if unused. Non-standard residues stand in square brackets, D forms with d. No end group written: not given here. gPNA = guanine base linked to N-(2-aminoethyl)-glycine backbone, Nc1nc2c(ncn2CC(=O)N(CCN[*:1])CC(=O)[*:2])c(=O)[nH]1; tPNA = thymine base linked to N-(2-aminoethyl)-glycine backbone, Cc1cn(CC(=O)N(CCN[*:1])CC(=O)[*:2])c(=O)[nH]c1=O; cPNA = cytosine base linked to N-(2-aminoethyl)-glycine backbone, Nc1ccn(CC(=O)N(CCN[*:1])CC(=O)[*:2])c(=O)n1; aPNA = adenine base linked to N-(2-aminoethyl)-glycine backbone, Nc1ncnc2c1ncn2CC(=O)N(CCN[*:1])CC(=O)[*:2]; hArg = N=C(N)NCCCC[C@H](N)C(=O)O; Orn = NCCC[C@H](N)C(=O)O; Dap = NC[C@H](N)C(=O)O; ∗∗ = not defined here

The first experiment concerns DsRedCAG100 flies. The experiment is described as follows: Pseudopupil assay in DsRedCAG100 Drosophila (expanded CAG RNA neurodegeneration). Format: in vivo. The note with it: 1 μM treatment; 12 day-old flies. The text has this: Here the DsRedCAG0/100Drosophila model was utilized to investigate the suppressive effects of the P3 analogs on RNA toxicity. In this model, the CAG repeat is located in the 3′ untranslated region of the DsRed reporter gene-=. The transcribed expanded CAG RNA is not translated into polyQ protein, and thus the toxicity is solely attributed to the expression of DsRedCAG100 RNA. In brief, the expression of expanded CAG RNA causes severe retinal degeneration in the animal that can be quantified by a pseudopupil assay^7. Inhibitors that can suppress neurotoxicity will result in the recovery of the number of rhabdomeres within the ommatidium. To test the derivatives, third instar larvae were fed different amounts of peptide dissolved in sucrose solution for 2 hr and then allowed to culture in standard fly food until the flies were 12 days old, at which time they were sacrificed for the pseudopupil assay.
Flies were raised at 21.5° C. on cornmeal medium supplemented with dry yeast. Fly lines bearing UAS-DsRedCAG0 and UAS-DsRedCAG100 were kind gifts of Professor Nancy Bonini (University of Pennsylvania, USA). The gmr-GAL4 fly line was obtained from Bloomington Drosophila Stock Center. For pseudopupil assay, third instar larvae were fed with various amount of respective peptides dissolved in 2% sucrose solution for 2 hr and then continued to culture in standard fly food at 21.5° C.^38. Pseudopupil assay was performed on 12 day-old adult flies as mentioned previously^39. Images were captured by SPOT Insight CCD camera controlled by the SPOT Advanced software (Diagnostic instruments Inc.). Image processing was performed using the Adobe Photoshop CS software (Adobe). Each experiment was repeated at least 3 times (n=10 fly heads), and consistent results were obtained. For viability test of wild-type flies from egg to adult stage, eggs born within 5 hr were collected and cultured in fly food containing 10 or 50 μM of respective peptides at 21.5° C. Viability from egg-to-adult was calculated as the number of adult flies collected divided by the number of eggs examined. Each experiment was repeated for three times (at least 130 eggs were examined in each group). Two batches of independently synthesized peptides were used in the experiments.
Regarding DGRSRGIAYIEFK [P3V5], the pseudopupil score stood at 3.64±0.22.

The experiment is the same for the next values; noted with them: DsRedCAG100 flies, in words.
As for DGRSRGIAYIEFK [P3V5], the “suppression of neurotoxicity / retinal degeneration” value was “significantly suppressed neurotoxicity”.

Another experiment deals with MJDCAG78 RNA. The experiment is described as follows: Isothermal titration calorimetry binding assay, expanded MJDCAG78 RNA. The note with it: ITC at 25° C.; 0.7 mM peptide titrated into 0.5 μM MJDCAG78 RNA; one binding site model; mean ± S.E.M. How it is done: Experiments were carried out using a MicroCal iTC200 isothermal titration calorimeter (GE Healthcare) at 25° C. Data were analyzed using the Origin® scientific plotting software version 7 (Microcal Software Inc.). All RNAs and peptides were dissolved in binding buffer (20 mM MOPS, pH 7.0; 300 mM NaCl) and 0.7 mM of peptide was titrated into 0.5 μM of RNA for each experiment. The concentration of RNA was estimated with appropriate extinction coefficients at 260 nm on a Nanodrop 2000 (Thermo Scientific). A reference power of 8 μcal/s was used with an initial 0.5 μl of injection of peptide followed by 2 μl for all subsequent titrations points with a 60 sec initial equilibrium delay and 150 sec pause between injections. The samples were stirred at a speed of 1000 rpm throughout the experiment. The thermal titration data were fitted to the ‘one binding site model’ to determine the dissociation constant (KD). Each experiment was repeated at least 3 times with consistent results obtained.
Take “Ac-Asp-Gly-(Dap)-Ser-Lys-Gly-Ile-Ala-Tyr-Ile-Glu-Phe-Lys-NH2 (Ac-DG[Dap]SKGIAYIEFK-NH2; SMILES CC[C@H](C)[C@H](NC(=O)CNC(=O)[C@H](CCCCN)NC(=O)[C@H](CO)NC(=O)[C@H](CN)NC(=O)CNC(=O)[C@H](CC(=O)O)NC(C)=O)C(=O)N[C@@H](C)C(=O)N[C@@H](Cc1ccc(O)cc1)C(=O)N[C@H](C(=O)N[C@@H](CCC(=O)O)C(=O)N[C@@H](Cc1ccccc1)C(=O)N[C@@H](CCCCN)C(N)=O)[C@@H](C)CC) [P3V18]”: the KD entry is given as “No binding”.

On to “Ac-Asp-Gly-(Orn)-Ser-Lys-Gly-Ile-Ala-Tyr-Ile-Glu-Phe-Lys-NH2 (Ac-DG[Orn]SKGIAYIEFK-NH2) [P3V16]”, for which the KD entry is recorded as “No binding”. The same measure, in the same setting: next, “Ac-Asp-Gly-(hArg)-Ser-Lys-Gly-Ile-Ala-Tyr-Ile-Glu-Phe-Lys-NH2 (Ac-DG[hArg]SKGIAYIEFK-NH2; SMILES CC[C@H](C)[C@H](NC(=O)CNC(=O)[C@H](CCCCN)NC(=O)[C@H](CO)NC(=O)[C@H](CCCCNC(=N)N)NC(=O)CNC(=O)[C@H](CC(=O)O)NC(C)=O)C(=O)N[C@@H](C)C(=O)N[C@@H](Cc1ccc(O)cc1)C(=O)N[C@H](C(=O)N[C@@H](CCC(=O)O)C(=O)N[C@@H](Cc1ccccc1)C(=O)N[C@@H](CCCCN)C(N)=O)[C@@H](C)CC) [P3V14]”: “No binding”; “Ac-Asp-Gly-Lys-Ser-(Dap)-Gly-Ile-Ala-Tyr-Ile-Glu-Phe-Lys-NH2 (Ac-DGKS[Dap]GIAYIEFK-NH2; SMILES CC[C@H](C)[C@H](NC(=O)CNC(=O)[C@H](CN)NC(=O)[C@H](CO)NC(=O)[C@H](CCCCN)NC(=O)CNC(=O)[C@H](CC(=O)O)NC(C)=O)C(=O)N[C@@H](C)C(=O)N[C@@H](Cc1ccc(O)cc1)C(=O)N[C@H](C(=O)N[C@@H](CCC(=O)O)C(=O)N[C@@H](Cc1ccccc1)C(=O)N[C@@H](CCCCN)C(N)=O)[C@@H](C)CC) [P3V19]”: “No binding”; “Ac-Asp-Gly-Lys-Ser-(Orn)-Gly-Ile-Ala-Tyr-Ile-Glu-Phe-Lys-NH2 (Ac-DGKS[Orn]GIAYIEFK-NH2) [P3V17]”: “No binding”. For the substance “Ac-Asp-Gly-Lys-Ser-(hArg)-Gly-Ile-Ala-Tyr-Ile-Glu-Phe-Lys-NH2 (Ac-DGKS[hArg]GIAYIEFK-NH2; SMILES CC[C@H](C)[C@H](NC(=O)CNC(=O)[C@H](CCCCNC(=N)N)NC(=O)[C@H](CO)NC(=O)[C@H](CCCCN)NC(=O)CNC(=O)[C@H](CC(=O)O)NC(C)=O)C(=O)N[C@@H](C)C(=O)N[C@@H](Cc1ccc(O)cc1)C(=O)N[C@H](C(=O)N[C@@H](CCC(=O)O)C(=O)N[C@@H](Cc1ccccc1)C(=O)N[C@@H](CCCCN)C(N)=O)[C@@H](C)CC) [P3V15]”, the KD entry is on record as “No binding”. In the case of DGASKGIAYIEFK [P3MT1], the Kd came out at 31.3 ± 8.29 µM. Same read-out and setting: for DGKSAGIAYIEFK [P3MT2] the value was 100 µM and 101 µM; for DGKSKGIAAIEFK [P3MT3], 16 µM and 16.6 µM; for DGKSKGIAWIEFK [P3V2], 2.2 µM and 2.21 µM. Take DGKSKGIAYIEAK [P3MT4]: the Kd was 17 µM and 17.4 µM. The same measure, in the same setting: next, DGKSKGIAYIEFA [P3MT5]: 51 µM and 51.3 µM; DGKSKGIAYIEFK [P3V7]: 3.67 ± 0.26 µM. For “DGKSKGIAYIEFKDGKSKGIAYIEFK [P3V20, linear dimer of P3V8]”, the KD result is given as “did not show any binding; also recorded: No binding”. With “DGKSKGIAYIEFKGDGKSKGIAYIEFK [P3V21, linear dimer of P3V8]”, the KD result is “did not show any binding; also recorded: No binding”. Turning to DGKSKGIAYIEWK [P3V4], the Kd worked out at 4.44 ± 0.47 µM.

Regarding DGKSKGIAYIEYK [P3V3], the equilibrium dissociation constant (Kd) turned out to be 1.74 ± 0.67 µM. The same measure, in the same setting: for DGRSRGIAYIEFK [P3V5] the value was ~0.86 µM and 0.86 µM; for DGRSRGIAYIEFK [P3V9], 2.34 ± 0.49 µM. The same measure, in the same setting: next, DGRSRGIAYIEFR [P3V6]: 23 µM and 23.3 µM.

With “H-Asp-Gly-Lys-Ser-Lys-Gly-Ile-Ala-Tyr-Ile-Glu-Phe-Lys-tPNA-NH2 (DGKSKGIAYIEFK[tPNA]-NH2; also: Asp N-terminal amino group replaced by hydrogen) [P3V22]”, the KD result was “No binding”. In turn, “H-Asp-Gly-Lys-Ser-Lys-Gly-Ile-Ala-Tyr-Ile-Glu-Phe-Lys-tPNA-cPNA-gPNA-NH2 (DGKSKGIAYIEFK[tPNA][cPNA][gPNA]-NH2; also: Asp N-terminal amino group replaced by hydrogen) [P3V23]” returned a Kd of 233 ± 98.9 µM.

Take “H-Asp-Gly-Lys-Ser-Lys-Gly-Ile-tPNA-*-Ile-Glu-Phe-Lys-NH2 (H-DGKSKGI[tPNA]IEFK-NH2; not fully specified (residue 8); also: Asp N-terminal amino group replaced by hydrogen) [P3V12]”: the Kd was 9.93 ± 2.19 µM. The same measure, in the same setting: next, “H-aPNA-**-Lys-Ser-Lys-Gly-Ile-Ala-Tyr-Ile-Glu-Phe-Lys-NH2 (H-[aPNA]KSKGIAYIEFK-NH2; not fully specified (residue 1); printed as H-aPNA-**-Lys-Ser-Lys-Gly-Ile-Ala-Tyr-Ile-Glu-Phe-Lys-NH2; also: N-terminal amino group replaced by hydrogen) [P3V25]”: 8.28 ± 2.27 µM; “H-cPNA-gPNA-tPNA-Asp-Gly-Lys-Ser-*-Gly-Ile-Ala-Tyr-Ile-Glu-Phe-Lys-NH2 (H-[cPNA][gPNA][tPNA]DGKSGIAYIEFK-NH2; not fully specified (residue 7); printed as H-cPNA-gPNA-tPNA-Asp-Gly-Lys-Ser-*-Gly-Ile-Ala-Tyr-Ile-Glu-Phe-Lys-NH2; also: N-terminal amino group replaced by hydrogen) [P3V13]”: 10.8 ± 3.08 µM. For “H-cptPNA-**-Lys-Ser-Lys-Gly-Ile-Ala-Tyr-Ile-Glu-Phe-Lys-NH2 (H-XKSKGIAYIEFK-NH2; not fully specified (residue 1); printed as H-cptPNA-**-Lys-Ser-Lys-Gly-Ile-Ala-Tyr-Ile-Glu-Phe-Lys-NH2; also: N-terminal amino group replaced by hydrogen) [P3V27]”, binding was put at a Kd of 11.2 ± 4.37 µM. Still for that read-out and setting: next, “H-gPNA-**-Lys-Ser-Lys-Gly-Ile-Ala-Tyr-Ile-Glu-Phe-Lys-NH2 (H-[gPNA]KSKGIAYIEFK-NH2; not fully specified (residue 1); printed as H-gPNA-**-Lys-Ser-Lys-Gly-Ile-Ala-Tyr-Ile-Glu-Phe-Lys-NH2; also: N-terminal amino group replaced by hydrogen) [P3V26]”: 8.85 ± 2.85 µM; “H-tPNA-**-Lys-Ser-Lys-Gly-Ile-Ala-Tyr-Ile-Glu-Phe-Lys-NH2 (H-[tPNA]KSKGIAYIEFK-NH2; not fully specified (residue 1); printed as H-tPNA-**-Lys-Ser-Lys-Gly-Ile-Ala-Tyr-Ile-Glu-Phe-Lys-NH2; also: N-terminal amino group replaced by hydrogen) [P3V11]”: 0.12 µM.

“H-tPNA-Asp-Gly-Lys-Ser-Lys-Gly-Ile-Ala-Tyr-Ile-Glu-Phe-Lys-NH2 ([tPNA]DGKSKGIAYIEFK-NH2; also: N-terminal amino group replaced by hydrogen) [P3V10]”: the Kd is 2.2 µM and 2.24 µM. Turning to “Hi-cPNA-**-Lys-Ser-Lys-Gly-Ile-Ala-Tyr-Ile-Glu-Phe-Lys-NH2 (H-[cPNA][∗∗]KSKGIAYIEFK-NH2; not fully specified; printed as Hi-cPNA-**-Lys-Ser-Lys-Gly-Ile-Ala-Tyr-Ile-Glu-Phe-Lys-NH2; reading uncertain; also: N-terminal amino group replaced by hydrogen) [P3V24]”, the equilibrium dissociation constant (Kd) worked out at 0.96 µM.

Still in this experiment, the particulars now being: relative to P3.
For the substance “Asp-(d-Ala)-Lys-Ser-Lys-Gly-Ile-Ala-Tyr-Ile-Glu-Phe-Lys (D[dA]KSKGIAYIEFK) [P3V1]”, the “improvement of binding affinity to expanded CAG RNA over P3” value was determined as 4 fold.

As to DGKSKGIAYIEWK [P3V4], the “improvement of binding affinity to expanded CAG RNA over P3” value is around 4 fold. Still for that read-out and setting: next, DGKSKGIAYIEYK [P3V3]: around 2 fold; DGRSRGIAYIEFK [P3V5]: around 10 fold.
